# B1: noggin: human noggin, ingredient 1) of the MSSC medium, 250 ng/mL (protein, UniProt Q13253 28-232, looked up)
# Noggin: QHYLHIRPAPSDNLPLVDLIEHPDPIFDPKEKDLNETLLRSLLGGHYDPGFMATSPPEDRPGGGGGAAGGAEDLAELDQLLRQRPSGAMPSEIKGLEFSEGLAQGKKQRLSKKLRRKLQMWLWSQTFCPVLYAWNDLGSRFWPRYVKVGSCFSKRSCSVPEGMVCKPSKSVHLTVLRWRCQRRGGQRCGWIPIQYPIISECKCSC
# Columns and labels:
# [1] = tested on: hMSSCs; experiment: Induction of selective differentiation of hMSSCs transplanted into mouse; assay type: in vivo; settings: mixed with heparin, transplanted into subcutaneous tissue of mouse; FIG. 8
# Procedure: In order to measure the possibility of selective differentiation of hMSSCs, hMSSCs were transplanted into the kidney (kidney capsule) or subcutaneous tissue of Balb/c nude mouse by pretreating with various growth factors such as connective tissue growth factor, transforming growth factor, insulin, fibroblast growth factor, etc. and then preparing into a cell aggregate (4×10^5 cells) or mixing with a cell carrier. 3-6 weeks after the transplantation, tissue was analyzed after removing the transplanted cells.
# For investigation of the selective differentiation capacity of the hMSSCs induced in the same manner as in Example 2 into muscle in vivo, hMSSCs were mixed with fibrin glue to which heparin was added and then transplanted into the subcutaneous tissue of an immunodeficient mouse. 7 weeks after the transplantation of hMSSCs, tissue was stained with H&E and the STEM101 antibody (Takara, Japan) binding to the human cell nucleus marker in order to identify whether the differentiated tissue was derived from the hMSSCs. In addition, the differentiated tissue was immunofluorescence staining with an antibody against the muscle marker MyoD (Thermo Fisher Scientific Inc., USA) in order to identify muscle cells. The cell nuclei were counterstained with DAPI. […]
# [2] = tested on: hESCs; experiment: Differentiation tendency of MSSC medium vs. CM medium (number of differentiations out of 20 observations); assay type: cell-based, human; settings: noggin contained, as compared to CM medium
# Procedure: The differentiation capacity of a medium (hereinafter, referred to as “CM medium”) obtained by replacing human noggin (Life Technologies), which is the ingredient 1) of the seven ingredients of the MSSC medium of Example 2, with conditioned medium (culture supernatant obtained after culturing CF1 cells for 24 hours using complete medium wherein DMEM/F12 is replaced with knockout DMEM (knockout DMEM supplemented with 20% knockout serum replacement (Invitrogen, USA), 1 mM glutamine, 1% nonessential amino acids (Invitrogen, USA), 0.1 mM β-mercaptoethanol, 0.1% penicillin-streptomycin and 5 mg/mL bovine serum albumin) (the remaining ingredients 2)-7) are the same) was compared with that of the MSSC medium.
# Noggin is generally used to maintain the characteristics of hESCs during culturing (Chaturvedi G, Simone P D, Ain R, Soares M J, Wolfe M W. Noggin maintains pluripotency of human embryonic stem cells grown on Matrigel. Cell Prolif. 2009 August; 42(4): 425-33).
Molecule,selective differentiation of hMSSCs [1],increase of tendency of osteogenic differentiation [2]
heparin,differentiated selectively into muscle only,
B1,,≥ 10 times
